How the values were obtained:
[1] = system: glioblastoma (GBM); assay: Animal biodistribution in glioblastoma (GBM) tumor-bearing athymic nude mice; type: in vivo; details: 2 hr. postinjection, tail vein
Description: The six-week old athymic nude mice were obtained from the Experiment Animal Center, Tri-service General Hospital, Taipei, Taiwan. The viable cultured cells, glioblastoma (GBM), were implanted in the upper back leg by intradermal injection. The tissue biodistribution of gallium-67 dimercaptosuccinate was determined following injection (0.15 to 0.2 ml) into tail vein of ketamine anesthetized in tumor-bearing mice. The reanesthetized animals were sacrificed immediately thereafter by decapitation at given time intervals. The organs of interest were subsequently excised, blotted with tissue paper, weighed and the radioactivity was measured. The tissue distribution of gallium-67 dimercaptosuccinate and gallium-67 chloride in tumor-bearing mice are shown in FIG. 1 at 2 hr. postinjection, as much as 7.8% and 1.1% were in GBM and gallium-67 chloride respectively.

[2] = system: tumor; assay: Gamma camera imaging of tumor-bearing mice; type: in vivo, athymic nude mice; details: gamma images at 5 min and 15 min
Description: FIG. 2 is a photograph showing the position of tumors in the body of athymic nude mice imaged […] after injection with gallium-67 dimercaptosuccinate.
Imaging was performed using the Elscint gamma camera with medium energy collimator, and a SIMIS-IV nuclear medicine computer for data processing.

Row | Molecule | tissue distribution in GBM [1] | in vivo stability [2]
1 | [Cl][Ga]([Cl])[Cl] [gallium-67 chloride, reference compound] | 1.1% | 
2 | gallium-67 dimercaptosuccinate | 7.8% | stable in vivo
